The record followed here is ChEMBL document CHEMBL3992523, “Potent Inhibition of Nitric Oxide-Releasing Bifendate Derivatives against Drug-Resistant K562/A02 Cells in Vitro and in Vivo” (J Med Chem, 2017).

Activity calls are given as the source filed them. The calls are words filed in the database; no cut-off is given here. A value given as a limit tells only on which side of the number the result lay.

By IC50 is commonly meant the concentration that inhibits the measured activity by half. Low readings indicate greater potency in that assay, high ones weaker potency in that assay.

The nature of series [1]: Resistant factor, ratio of IC50 for P-gp overexpressing/drug resistant human K562/A02 cells to IC50 for human K562 cells. It is filed as functional.
For series [2], the system named is K562/A02. The series can be described thus: Anti-proliferative activity against P-gp overexpressing/drug resistant human K562/A02 cells measured after 72 hrs by MTS assay. It is filed as functional, cell-based. The settings on record: K562/A02, 72 h.
The test system of series [3] is K562. Description: Anti-proliferative activity against human K562 cells measured after 72 hrs by MTS assay. It is filed as functional, cell-based. The settings on record: K562, 72 h.
Series [4] in a line: Drug metabolism in P-gp overexpressing/drug resistant human K562/A02 cells assessed as nitric oxide production at 100 uM measured at 240 mins by Griess assay. The format is ADME, cell-based. The settings on record: k562/a02, 4 h.
For series [5], the species on record is Homo sapiens. The series can be described thus: Effect on P-gp ATPase activity in human K562/A02 cell membranes assessed as remaining ATP level by measuring relative light units at 200 uM in presence of MgATP measured after 40 mins by luminescence based P-gp-Glo assay.
The subject of series [6] is K562/A02. Description: Antitumor activity against P-gp overexpressing/drug resistant human K562/A02 cells xenografted in BALB/c nude mouse assessed as tumor growth inhibition at 4 mg/kg, iv administered every other day for 21 days measured post last dose relative to control. The format is functional. As to conditions: 504 h, read-out: TGI. For orientation: In xenograft studies the graft and the host belong to different species.

Series [7] in a line: Toxicity in BALB/c nude mouse administered via ip for every 3 days of four injections. The settings on record: in vivo.
The subject of series [8] is K562/A02. The series can be described thus: Antitumor activity against P-gp overexpressing/drug resistant human K562/A02 cells xenografted in BALB/c nude mouse assessed as reduction in tumor weight at 4 mg/kg, iv administered every other day for 21 days measured post last dose. The format is functional, organism-based.
For series [9], the system named is K562/A02. Description: Antitumor activity against P-gp overexpressing/drug resistant human K562/A02 cells xenografted in BALB/c nude mouse assessed as reduction in tumor size at 4 mg/kg, iv administered every other day for 21 days measured post last dose. It is filed as functional, organism-based.
Series [10] deals with K562/A02. The series can be described thus: Anti-proliferative activity against P-gp overexpressing/drug resistant human K562/A02 cells at 150 uM in presence of hemoglobin measured after 24 hrs by MTS assay. It is filed as functional, cell-based. (Tetrazolium assays rely on reduction of a dye to a coloured formazan, in cell work by metabolically active cells.)
Series [11] can be described thus: Permeability in human Caco2 cells assessed as concentration ratio of basolateral to apical side at 100 uM measured at 5 mins post dose by HPLC analysis. It is filed as ADME, cell-based. As to conditions: caco-2, 5 min. Background: Caco-2 monolayers are a common model of the intestinal barrier.
The nature of series [12]: Permeability in human Caco2 cells assessed as concentration ratio of basolateral to apical side at 100 uM measured at 10 mins post dose by HPLC analysis. The format is ADME, cell-based. As to conditions: caco-2, 10 min.
The test system of series [13] is K562. Description: Effect on rhodamine123 accumulation in human K562 cells at 0.33 to 10 uM measured after 1 hr by flow cytometry. It is filed as functional, cell-based.
For series [14], the species on record is Homo sapiens. Description: Inhibition of P-gp in human K562/A02 cells assessed as increase in intracellular rhodamine123 accumulation at 0.33 to 10 uM measured after 1 hr by flow cytometry. It is filed as cell-based.

Take `COC(=O)c1cc(OC)c2c(c1-c1c(C(=O)OC3CCN(CC(=O)OCCOc4no[n+]([O-])c4S(=O)(=O)c4ccccc4)CC3)cc(OC)c3c1OCO3)OCO2`: the “Ratio IC50” value in [1] is 1.3. Also, the IC50 in series [2] was determined as 650 nM; in [3], 510 nM.
For `COC(=O)c1cc(OC)c2c(c1-c1c(C(=O)OC3CCN(CC(=O)OC(C)(C)CCOc4no[n+]([O-])c4S(=O)(=O)c4ccccc4)CC3)cc(OC)c3c1OCO3)OCO2`, the “Ratio IC50” value in series [1] is recorded as 1.1. Further, the IC50 in [2] was 910 nM; in [3] it was 870 nM.
On to `COC(=O)c1cc(OC)c2c(c1-c1c(C(=O)OC3CCN(CC(=O)OCCCCOc4nonc4S(=O)(=O)c4ccccc4)CC3)cc(OC)c3c1OCO3)OCO2`, for which the “Ratio IC50” value in [1] came out at 1.1. Moreover, the IC50 in [2] turned out to be 73000 nM; in series [3] it was 68000 nM. Besides, the Drug metabolism result in series [4] is “Metabolite_Notdetected”.
On to `COC(=O)c1cc(OC)c2c(c1-c1c(C(=O)OCCN3CCN(CC(=O)OCCCCOc4no[n+]([O-])c4S(=O)(=O)c4ccccc4)CC3)cc(OC)c3c1OCO3)OCO2`, for which, in [1], the “Ratio IC50” value amounted to 2.3. The IC50 in series [2] was found to be 1570 nM; in series [3], 690 nM.
Regarding SODIUM ORTHOVANAD, the Activity in series [5] came to 242000 RLU.
Consider `COC(=O)c1cc(OC)c2c(c1-c1c(C(=O)OCCN3CCN(CC(=O)OCCOCCOc4no[n+]([O-])c4S(=O)(=O)c4ccccc4)CC3)cc(OC)c3c1OCO3)OCO2`, for which the “Ratio IC50” value in series [1] came to 6.1. The IC50 in [2] was found to be 2300 nM; in [3], 380 nM.
The matching figures for `COC(=O)c1cc(OC)c2c(c1-c1c(C(=O)OCCN3CCN(CC(=O)NCCOc4no[n+]([O-])c4S(=O)(=O)c4ccccc4)CC3)cc(OC)c3c1OCO3)OCO2`: 5.5, 3010 nM and 550 nM.
As for `O=C(CN1CCC(OC(=O)c2ccccc2)CC1)OCCCCOc1nonc1S(=O)(=O)c1ccccc1`, the “Ratio IC50” value in series [1] turned out to be 1.6. Also, the IC50 in [2] came out at 6650 nM; in [3] it was 4060 nM.
For `COC(=O)c1cc(OC)c2c(c1-c1c(C(=O)OC3CCN(CC(=O)OCCCOc4no[n+]([O-])c4S(=O)(=O)c4ccccc4)CC3)cc(OC)c3c1OCO3)OCO2`, in that order: 0.7, 590 nM and 800 nM.
With `COc1cccc2c1C(=O)c1c(O)c3c(c(O)c1C2=O)C[C@@](O)(C(=O)CO)C[C@@H]3O[C@H]1C[C@H](N)[C@H](O)[C@H](C)O1.Cl` [DOXORUBICIN HYDROCHLORIDE], in series [1], the “Ratio IC50” value is listed as 41.5. Also, the inhibition in vivo at 4 mg/kg in series [6] was determined as 18.6%. For the same molecule, the MTD at 72 h in series [7] stood at 4 mg/kg. The IC50 in series [2] came to 24500 nM; in series [3] it was 590 nM. Also, the outcome in series [8] and in series [9] was inactive.
With `COC(=O)c1cc(OC)c2c(c1-c1c(C(=O)OCCN3CCN(CC(=O)OC(C)(C)CCOc4no[n+]([O-])c4S(=O)(=O)c4ccccc4)CC3)cc(OC)c3c1OCO3)OCO2`, the “Ratio IC50” value in series [1] was 1.8. The figures for the IC50 in [2] and in series [3] were 1510 nM and 860 nM, respectively. In series [4], the Drug metabolism result is on record as “Metabolite_Detected”.
The matching figures for `COC(=O)c1cc(OC)c2c(c1-c1c(C(=O)OC3CCN(CC(=O)NCCOc4no[n+]([O-])c4S(=O)(=O)c4ccccc4)CC3)cc(OC)c3c1OCO3)OCO2`: 2.5, 3160 nM, 1280 nM and “Metabolite_Detected”.
The matching figures for `COC(=O)c1cc(OC)c2c(c1-c1c(C(=O)OCCN3CCN(CC(=O)OCCCOc4no[n+]([O-])c4S(=O)(=O)c4ccccc4)CC3)cc(OC)c3c1OCO3)OCO2`: 1.2, 930 nM, 750 nM and “Metabolite_Detected”.
As to `COC(=O)c1cc(OC)c2c(c1-c1c(C(=O)O)cc(OC)c3c1OCO3)OCO2`, the “Ratio IC50” value in series [1] stood at 0.9. For the same molecule, the results for the concentration for half-maximal inhibition (IC50) in [2] and in [3] were 125000 nM and 137000 nM, respectively. Besides, in [4], the Drug metabolism result was “Metabolite_Notdetected”. In series [10], the outcome was inactive.
As for `COC(=O)c1cc(OC)c2c(c1-c1c(C(=O)OCCN3CCN(CC(=O)OCCOc4no[n+]([O-])c4S(=O)(=O)c4ccccc4)CC3)cc(OC)c3c1OCO3)OCO2`, the “Ratio IC50” value in series [1] turned out to be 3.5. For the same molecule, the results for the IC50 in series [2] and in series [3] were 2010 nM and 580 nM, respectively.
Consider `O=C(CN1CCC(O)CC1)OCCCCOc1no[n+]([O-])c1S(=O)(=O)c1ccccc1`, for which, in series [1], the “Ratio IC50” value was determined as 1.8. Besides, the Ratio in [11] is 0.02; in series [12] it was 0.03. Moreover, the values for the IC50 in [2] and in series [3] were 4110 nM and 2250 nM, respectively.
As for `COC(=O)c1cc(OC)c2c(c1-c1c(C(=O)OC3CCN(CC(=O)OCCOCCOc4no[n+]([O-])c4S(=O)(=O)c4ccccc4)CC3)cc(OC)c3c1OCO3)OCO2`, the “Ratio IC50” value in series [1] is 1.4. For the same molecule, the IC50 is 890 nM in [2] and 640 nM in [3]. In addition, the Drug metabolism result in series [4] is “Metabolite_Detected”.
For `COC(=O)c1cc(OC)c2c(c1-c1c(C(=O)OC3CCN(CC(=O)OC(C)CCOc4no[n+]([O-])c4S(=O)(=O)c4ccccc4)CC3)cc(OC)c3c1OCO3)OCO2` (stereo not drawn), the “Ratio IC50” value in [1] amounted to 1.9. Besides, the figures for the IC50 in series [2] and in series [3] were 760 nM and 390 nM, respectively.
On to `COC(=O)c1cc(OC)c2c(c1-c1c(C(=O)OC)cc(OC)c3c1OCO3)OCO2` [BIFENDATE], for which the IC50 in series [2] and in series [3] was greater than 200000 nM throughout.
Regarding `COC(=O)c1cc(OC)c2c(c1-c1c(C(=O)OCCN3CCN(CC(=O)OC(C)CCOc4no[n+]([O-])c4S(=O)(=O)c4ccccc4)CC3)cc(OC)c3c1OCO3)OCO2` (stereo not drawn), in series [1], the “Ratio IC50” value was 2.1. Besides, the figures for the IC50 in series [2] and in series [3] were 810 nM and 380 nM, respectively.
As for `COc1ccc(CCN(C)CCCC(C#N)(c2ccc(OC)c(OC)c2)C(C)C)cc1OC` (stereo not drawn), in [13], the result was inactive. Also, the Activity in series [5] was found to be 179000 RLU. In series [14], the inhibition result is “Active”.
